This passage reports IC50 results from ChEMBL document CHEMBL1287675, “Substituted spiro [2.3'] oxindolespiro [3.2″]-5,6-dimethoxy-indane-1″-one-pyrrolidine analogue as inhibitors of acetylcholinesterase” (Bioorg Med Chem Lett, 2010).

As usually defined, the IC50 is the concentration that gives 50% inhibition.

The target in the experiment is Acetylcholinesterase (Homo sapiens, UniProt P22303). The experiment in a line: Inhibition of human acetyl cholinesterase by Ellmann's method.
Sequence of Acetylcholinesterase (P22303 whole entry): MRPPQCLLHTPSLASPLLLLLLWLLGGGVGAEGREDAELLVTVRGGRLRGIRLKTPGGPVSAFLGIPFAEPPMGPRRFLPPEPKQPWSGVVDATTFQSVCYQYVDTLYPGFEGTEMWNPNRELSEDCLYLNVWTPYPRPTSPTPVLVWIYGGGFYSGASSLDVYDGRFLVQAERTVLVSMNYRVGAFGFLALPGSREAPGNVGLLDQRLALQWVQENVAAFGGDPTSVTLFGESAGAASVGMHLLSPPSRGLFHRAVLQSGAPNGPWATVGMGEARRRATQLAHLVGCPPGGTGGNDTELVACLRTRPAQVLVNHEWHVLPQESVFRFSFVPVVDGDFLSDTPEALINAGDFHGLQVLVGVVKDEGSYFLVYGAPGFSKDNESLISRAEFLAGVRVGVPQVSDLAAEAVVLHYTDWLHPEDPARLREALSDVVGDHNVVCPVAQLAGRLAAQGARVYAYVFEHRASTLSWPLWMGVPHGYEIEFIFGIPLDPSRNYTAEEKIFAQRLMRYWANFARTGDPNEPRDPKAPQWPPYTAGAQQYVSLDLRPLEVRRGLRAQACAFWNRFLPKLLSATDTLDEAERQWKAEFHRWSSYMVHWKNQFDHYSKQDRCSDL
In turn, `COc1ccc(C2CN(C)C3(C(=O)Nc4ccc([N+](=O)[O-])cc43)C23Cc2cc(OC)c(OC)cc2C3=O)cc1OC` (centres undefined) displayed an IC50 of 6.1 µM.

For the molecule `COc1ccc(C2C(c3ccccc3)NC3(C(=O)Nc4ccccc43)C23Cc2cc(OC)c(OC)cc2C3=O)cc1OC` (centres undefined), the IC50 was 5.2 µM.

For `COc1cc2c(cc1OC)C(=O)C1(C2)C(c2ccc(F)cc2)C(c2ccccc2)NC12C(=O)Nc1ccc(Cl)cc12` (centres undefined), inhibition was half-maximal at 9.86 µM (IC50). This IC50 is about 1.9-fold higher than that of the molecule before.

As to `COc1ccc(C2C(c3ccccc3)NC3(C(=O)Nc4ccc(Cl)cc43)C23Cc2cc(OC)c(OC)cc2C3=O)cc1OC` (centres undefined), half-maximal inhibition (IC50) required 8.26 µM.

For `COc1cc2c(cc1OC)C(=O)C1(C2)C(c2ccccc2Cl)C(c2ccccc2)NC12C(=O)Nc1ccc(Cl)cc12` (centres undefined), the IC50 was determined as 12.2 µM. The IC50 values of the last two molecules are within 1.5-fold of each other.

Consider `COc1cc2c(cc1OC)C(=O)C1(C2)C(c2ccc(F)cc2)C(c2ccccc2)NC12C(=O)Nc1ccc([N+](=O)[O-])cc12` (centres undefined), for which the IC50 was 14.3 µM.

As for `COc1ccc(C2C(c3ccccc3)NC3(C(=O)Nc4ccc([N+](=O)[O-])cc43)C23Cc2cc(OC)c(OC)cc2C3=O)cc1OC` (centres undefined), the midpoint of inhibition, the IC50, lay at 15.4 µM.

`COc1cc2c(cc1OC)C(=O)C1(C2)C(c2ccccc2)C(c2ccccc2)NC12C(=O)Nc1ccc([N+](=O)[O-])cc12` (centres undefined) had an IC50 of 3.7 µM.

`COc1cc2c(cc1OC)C(=O)C1(C2)C(c2ccccc2Cl)C(c2ccccc2)NC12C(=O)Nc1ccc([N+](=O)[O-])cc12` (centres undefined): the midpoint of inhibition, the IC50, lay at 4.2 µM.

In turn, `COc1cc2c(cc1OC)C(=O)C1(C2)C(c2ccc(F)cc2)CN(C)C12C(=O)Nc1ccccc12` (centres undefined) returned an IC50 of 2.12 µM.

Turning to `COc1ccc(C2CN(C)C3(C(=O)Nc4ccccc43)C23Cc2cc(OC)c(OC)cc2C3=O)cc1OC` (centres undefined), the IC50 is 4.2 µM.

Regarding `COc1cc2c(cc1OC)C(=O)C1(C2)C(c2ccccc2)CN(C)C12C(=O)Nc1ccccc12` (centres undefined), the IC50 is 3.12 µM. This IC50 and that of the molecule before are within 1.5-fold of each other.

With `COc1cc2c(cc1OC)C(=O)C1(C2)C(c2ccccc2Cl)CN(C)C12C(=O)Nc1ccccc12` (centres undefined), the IC50 is 4.3 µM.

Consider `COc1cc2c(cc1OC)C(=O)C1(C2)C(c2ccc(F)cc2)CN(C)C12C(=O)Nc1ccc(Cl)cc12` (centres undefined), for which it took 3.7 µM to reach half-maximal inhibition (IC50).

As to `COc1ccc(C2CN(C)C3(C(=O)Nc4ccc(Cl)cc43)C23Cc2cc(OC)c(OC)cc2C3=O)cc1OC` (centres undefined), the IC50 is 4.2 µM.

In turn, `COc1cc2c(cc1OC)C(=O)C1(C2)C(c2ccccc2)CN(C)C12C(=O)Nc1ccc(Cl)cc12` (centres undefined) registered an IC50 of 11.2 µM.

Molecule `COc1cc2c(cc1OC)C(=O)C1(C2)C(c2ccccc2Cl)CN(C)C12C(=O)Nc1ccc(Cl)cc12` (centres undefined) had an IC50 of 6.6 µM. Against the preceding molecule, the IC50 is about 1.7-fold lower.

As for `COc1cc2c(cc1OC)C(=O)C1(C2)C(c2ccc(F)cc2)CN(C)C12C(=O)Nc1ccc([N+](=O)[O-])cc12` (centres undefined), the IC50 was 8.6 µM.

In turn, `COc1cc2c(cc1OC)C(=O)C1(C2)C(c2ccccc2)CN(C)C12C(=O)Nc1ccc([N+](=O)[O-])cc12` (centres undefined) yielded an IC50 of 13.2 µM.

For `COc1cc2c(cc1OC)C(=O)C1(C2)C(c2ccccc2Cl)CN(C)C12C(=O)Nc1ccc([N+](=O)[O-])cc12` (centres undefined), the IC50 is 7.6 µM.

`COc1cc2c(cc1OC)C(=O)C1(C2)C(c2ccc(F)cc2)C(c2ccccc2)NC12C(=O)Nc1ccccc12` (centres undefined) returned an IC50 of 6.86 µM.

In the case of `COc1cc2c(cc1OC)C(=O)C1(C2)C(c2ccccc2)C(c2ccccc2)NC12C(=O)Nc1ccccc12` (centres undefined), the IC50 amounted to 5.12 µM.

`COc1cc2c(cc1OC)C(=O)C1(C2)C(c2ccccc2Cl)C(c2ccccc2)NC12C(=O)Nc1ccccc12` (centres undefined) gave an IC50 of 7.3 µM.

With `COc1cc2c(cc1OC)C(=O)C1(C2)C(c2ccccc2)C(c2ccccc2)NC12C(=O)Nc1ccc(Cl)cc12` (centres undefined), the IC50 worked out at 7.26 µM.
